These results are taken from patent US12599578B2, “Compositions comprising enzyme-cleavable prodrugs and controlled release nafamostat and methods of use thereof” (Ensysce Biosciences Inc., priority 2021, dated 2026).

A short description of data set [1]: Blood hydromorphone after 1, 3, 6 or 10 pills of PF329 with or without nafamostat in rats. It is filed as in vivo. The settings on record: rats, 1, 3, 6 or 10 pills of PF329 containing nafamostat (FIG. 5). The source says: The rat experiments were repeated with a derivative of hydromorphone (referred to herein as PF329), which is another known pain medication. FIGS. 4 and 5 show the blood concentration of active hydromorphone (HM) after the administration of 1, 3, 6, or 10 pills, either without or with nafamostat.

The nature of data set [2]: Plasma oxycodone pharmacokinetics after oral KC-8 with or without nafamostat in rats. The data set is classed as in vivo. The settings on record: nafamostat co-administered with an oxycodone or hydromorphone derivative. On the procedure: The drug nafamostat mesylate was added to the formulations containing the KC-8 oxycodone-derivative. In the examples described herein, the terms “nafamostat mesylate” and “nafamostat” are used interchangeably.
Formulations containing both KC-8 and optionally nafamostat were administered orally to rats. The KC-8 dose was 5 mg/kg and the nafamostat concentration was 0, 0.1, 0.5, or 1 mg/kg. Plasma concentrations of active oxycodone were measured at various time intervals over 24 hours after administration.
In particular, the rats received 50 mg/kg of KC-8 and 0, 1, 5, or 10 mg/kg of nafamostat. With zero nafamostat, blood plasma concentration experienced a maximum of about 22 ng/ml at about 2 hours, wherein the concentration rapidly descended thereafter. In alignment with the data of FIG. 2, higher concentrations of nafamostat reduced the peak concentration to about 3 ng/ml at about 8 hours.

The conditions of data set [3]: 200 mg nafamostat; cited from earlier work.
For data set [4] the following is noted: doses of up to 200 mg KC-8 (80 mg oxycodone); cited from earlier work.

Like-named read-outs stand apart in the source and are kept apart here.

Take `N=C(N)c1ccc2cc(OC(=O)c3ccc(N=C(N)N)cc3)ccc2c1` [nafamostat, 6-carbamimidoylnaphthalen-2-yl 4-(diaminomethyleneamino)benzoate]: in data set [1], the “change of hydromorphone blood concentration on administering more pills” value is “little increase”. In addition, the “effect on maximum concentration of active drug in blood plasma” value in data set [2] is “significantly reduced the maximum concentration of active drug in blood plasma”. For the same compound, the safety and tolerability result in data set [3] is “safe and well tolerated”.
In the case of `COc1ccc2c3c1O[C@H]1C(OC(=O)N(C)CC(C)(C)CNC(=O)[C@H](CCCNC(=N)N)NC(=O)CNC(=O)CC(=O)O)=CC[C@@]4(O)[C@@H](C2)N(C)CC[C@]314` [KC-8, N-1-[3-(oxycodone-6-enol-carbonyl-methyl-amino)-2,2-dimethyl-propylamine]-arginine-glycine-malonic acid], the safety and tolerability result in data set [4] is “safe and well tolerated”.
